Measured values reported in US20130064890A1, “PHARMACEUTICAL FORMULATION BASED ON IBUPROFEN AND CODEINE HAVING IMPROVED STABILITY” ([…] MANUFACTURING, S.L., priority 2010, published 2013).

Assay: Differential Scanning Calorimetry (DSC) detection of incompatibilities, binary mixtures in equal parts
Assay type: physicochemical
Conditions: mixture in equal parts with ibuprofen, heating rate 5° C./min
Procedure: The technique called Differential Scanning calorimetry or DSC has been used for the thermal detection of possible incompatibilities among ingredients of the pharmaceutical formulation described in the present invention. Thus, by using a differential Scanning calorimeter, DSC-7 (Perkin-Elmer, USA) at a heating rate of the samples of 5° C./min, the quantity of energy or enthalpy required to keep the sample at the same temperature as that of the reference and that at each of the test temperatures is measured. […] However, when phase changes occur, the isothermal energy required is registered as an electric signal generated by thermocouples. It is understood that a change of phase occurs (or appearance of incompatibility) if the expected temperature value varies above the considered environment by 10% with respect to its original. Said error is carried from that produced typically in the analytical measurements (±5%, typical in terms of reproducibility), the uncertainty of apparatus calibration (±1%), the accuracy of the micromixture of ingredients achieved (±3%), and the rapid heating rates (±1% for heating>1° C./min). DSC is widely used in the industry as a quality control instrument due to its applicability in assessing the purity of the samples and studying the curing of the polymers. […]

CCCCCCCCCCCCCCCCCCOC(=O)/C=C/C(=O)[O-].[Na+] [sodium stearyl fumarate]
thermal/physical incompatibility with ibuprofen by DSC: does not show any physical incompatibility

magnesium stearate
thermal/physical incompatibility with ibuprofen by DSC: incompatible eutectic mixture
